ChEMBL document CHEMBL1201862, “PubChem BioAssay data set” (2004)
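Interpolation was linear, between the two tested concentrations surrounding the appropriate level; five concentrations were tested over 48 hours in 96-well plates. Abbreviation: GI50, concentration required for 50% inhibition of growth.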 Calls of active or inactive are those of the source. Cut-off read from the data, not from the text of the source: active = GI50 up to about 1.1 µM and inactive = higher.

How the values were obtained:
Assay in all cases: growth of human tumour cells (NCI), 48 h
UACC-257 = tested on: UACC-257
Malme-3M = tested on: Malme-3M
NCI-H23 = tested on: NCI-H23
OVCAR-8 = tested on: OVCAR-8
COLO 205 = tested on: COLO 205
K562 = tested on: K562
U-251 = tested on: U-251
NCI-H226 = tested on: NCI-H226
SF-268 = tested on: SF-268
KM12 = tested on: KM12
NCI-H460 = tested on: NCI-H460
UO-31 = tested on: UO-31
ACHN = tested on: ACHN
HCT-116 = tested on: HCT-116
SR = tested on: SR
SNB-78 = tested on: SNB-78
UACC-62 = tested on: UACC-62
OVCAR-3 = tested on: OVCAR-3
EKVX = tested on: EKVX
IGROV-1 = tested on: IGROV-1
HCC 2998 = tested on: HCC 2998
SF-539 = tested on: SF-539
SK-MEL-28 = tested on: SK-MEL-28
DLD-1 = tested on: DLD-1
HOP-92 = tested on: HOP-92
SN12C = tested on: SN12C
A549 = tested on: A549
RXF 631 = tested on: RXF 631
M19-MEL = tested on: M19-MEL
786-0 = tested on: 786-0
HOP-62 = tested on: HOP-62
OVCAR-4 = tested on: OVCAR-4
M14 = tested on: M14
RPMI-8226 = tested on: RPMI-8226
MOLT-4 = tested on: MOLT-4
HT-29 = tested on: HT-29
SK-OV-3 = tested on: SK-OV-3
LXFL 529 = tested on: LXFL 529
DMS-114 = tested on: DMS-114
CAKI-1 = tested on: CAKI-1
OVCAR-5 = tested on: OVCAR-5
SNB-75 = tested on: SNB-75
DMS-273 = tested on: DMS-273
SNB-19 = tested on: SNB-19
CCRF-CEM = tested on: CCRF-CEM
XF498 = tested on: XF498
KM-20L2 = tested on: KM-20L2
SW-620 = tested on: SW-620
NCI-H522 = tested on: NCI-H522
HCT-15 = tested on: HCT-15
DU-145 = tested on: DU-145
TK-10 = tested on: TK-10
HL-60 = tested on: HL-60
SK-MEL-2 = tested on: SK-MEL-2
RXF 393 = tested on: RXF 393
MCF7 = tested on: MCF7
BT-549 = tested on: BT-549
T47D = tested on: T47D
HOP-18 = tested on: HOP-18
MDA-MB-435 = tested on: MDA-MB-435
MDA-N = tested on: MDA-N
LOX IMVI = tested on: LOX IMVI
A498 = tested on: A498
SF-295 = tested on: SF-295
MDA-MB-231 = tested on: MDA-MB-231
NCI/ADR-RES = tested on: NCI/ADR-RES
Hs-578T = tested on: Hs-578T
SK-MEL-5 = tested on: SK-MEL-5
PC-3 = tested on: PC-3

Q: Which results are given for `COc1cccc(/C=C\c2cc(OC)c(OC)c(OC)c2)c1`?
A: GI50 (UACC-257): 0.505 µM (active); GI50 (Malme-3M): 0.585 µM (active); GI50 (NCI-H23): 1.32 µM (inactive); GI50 (OVCAR-8): 3.49 µM (inactive); GI50 (COLO 205): 0.807 µM (active); GI50 (K562): 373 nM (active); GI50 (U-251): 0.407 µM (active); GI50 (NCI-H226): 0.745 µM (active); GI50 (SF-268): 3.66 µM (inactive); GI50 (KM12): 543 nM (active); GI50 (NCI-H460): 0.562 µM (active); GI50 (UO-31): 4.48 µM (inactive); GI50 (ACHN): 5.79 µM (inactive); GI50 (HCT-116): 548 nM (active); GI50 (SR): 0.498 µM (active); GI50 (SNB-78): 1.24 µM (inactive); GI50 (UACC-62): 0.455 µM (active); GI50 (OVCAR-3): 0.506 µM (active); GI50 (EKVX): 3.49 µM (inactive); GI50 (IGROV-1): 3.15 µM (inactive); GI50 (HCC 2998): 3.94 µM (inactive); GI50 (SF-539): 0.753 µM (active); GI50 (SK-MEL-28): 0.507 µM (active); GI50 (DLD-1): 490 nM (active); GI50 (HOP-92): 22.6 µM (inactive); GI50 (SN12C): 4.08 µM (inactive); GI50 (A549): 0.668 µM (active); GI50 (RXF 631): 0.836 µM (active); GI50 (M19-MEL): 12.1 µM (inactive); GI50 (786-0): 0.575 µM (active); GI50 (HOP-62): 1.51 µM (inactive); GI50 (OVCAR-4): 14.4 µM (inactive); GI50 (M14): 0.604 µM (active); GI50 (RPMI-8226): 845 nM (active); GI50 (MOLT-4): 379 nM (active); GI50 (HT-29): 0.423 µM (active); GI50 (SK-OV-3): 4.38 µM (inactive); GI50 (LXFL 529): 2.49 µM (inactive); GI50 (DMS-114): 1.48 µM (inactive); GI50 (CAKI-1): 0.887 µM (active); GI50 (OVCAR-5): 22.2 µM (inactive); GI50 (SNB-75): 0.652 µM (active); GI50 (DMS-273): 0.553 µM (active); GI50 (SNB-19): 2.18 µM (inactive); GI50 (CCRF-CEM): 1.21 µM (inactive); GI50 (XF498): 2.8 µM (inactive); GI50 (KM-20L2): 0.37 µM (active); GI50 (SW-620): 656 nM (active); GI50 (NCI-H522): 375 nM (active); GI50 (HCT-15): 0.693 µM

Q: For `O=C1/C(=C/c2ccccc2)CCC/C1=C\c1ccccc1` [2,6-DIBENZYLIDENECYCLOHEXANONE], which GI50 (UACC-257) is on record?
A: The GI50 was 17 µM (inactive).

Q: What about the GI50 (DU-145) of the same molecule?
A: Its GI50 is 6.97 µM (inactive).

Q: And the GI50 (TK-10)?
A: Its GI50 is 17.8 µM (inactive).

Q: What about the GI50 (HL-60) of the same molecule?
A: Its GI50 is 2.8 µM (inactive).

Q: And the GI50 (Malme-3M)?
A: Its GI50 is 16.5 µM (inactive).

Q: And the GI50 (NCI-H23)?
A: The GI50 was 12.8 µM (inactive).

Q: And the GI50 (OVCAR-8)?
A: Its GI50 is 8.26 µM (inactive).

Q: What about the GI50 (COLO 205) of the same molecule?
A: Its GI50 is 17.9 µM (inactive).

Q: What about the GI50 (K562) of the same molecule?
A: Its GI50 is 3580 nM (inactive).

Q: And the GI50 (U-251)?
A: The GI50 was 5.82 µM (inactive).

Q: What about the GI50 (NCI-H226) of the same molecule?
A: The GI50 was 18.7 µM (inactive).

Q: What about the GI50 (SF-268) of the same molecule?
A: Its GI50 is 11 µM (inactive).

Q: And the GI50 (SK-MEL-2)?
A: The GI50 was 16.7 µM (inactive).

Q: And the GI50 (KM12)?
A: Its GI50 is 2520 nM (inactive).

Q: And the GI50 (NCI-H460)?
A: Its GI50 is 14.9 µM (inactive).

Q: What about the GI50 (UO-31) of the same molecule?
A: The GI50 was 18.2 µM (inactive).

Q: What about the GI50 (ACHN) of the same molecule?
A: The GI50 was 15.7 µM (inactive).

Q: And the GI50 (HCT-116)?
A: The GI50 was 1710 nM (inactive).

Q: And the GI50 (SR)?
A: Its GI50 is 9.71 µM (inactive).

Q: What about the GI50 (RXF 393) of the same molecule?
A: Its GI50 is 17.8 µM (inactive).

Q: What about the GI50 (SNB-78) of the same molecule?
A: The GI50 was 17.5 µM (inactive).

Q: And the GI50 (UACC-62)?
A: The GI50 was 13.2 µM (inactive).

Q: And the GI50 (MCF7)?
A: Its GI50 is 1.74 µM (inactive).

Q: And the GI50 (OVCAR-3)?
A: The GI50 was 10.4 µM (inactive).

Q: And the GI50 (EKVX)?
A: Its GI50 is 18.3 µM (inactive).

Q: And the GI50 (IGROV-1)?
A: Its GI50 is 13 µM (inactive).

Q: And the GI50 (BT-549)?
A: Its GI50 is 5.81 µM (inactive).

Q: And the GI50 (HCC 2998)?
A: Its GI50 is 12.2 µM (inactive).

Q: What about the GI50 (T47D) of the same molecule?
A: The GI50 was 6.4 µM (inactive).

Q: What about the GI50 (HOP-18) of the same molecule?
A: The GI50 was 19.5 µM (inactive).

Q: What about the GI50 (SF-539) of the same molecule?
A: Its GI50 is 16.6 µM (inactive).

Q: And the GI50 (SK-MEL-28)?
A: The GI50 was 16.6 µM (inactive).

Q: And the GI50 (MDA-MB-435)?
A: Its GI50 is 5.62 µM (inactive).

Q: What about the GI50 (DLD-1) of the same molecule?
A: Its GI50 is 3040 nM (inactive).

Q: And the GI50 (HOP-92)?
A: The GI50 was 17.5 µM (inactive).

Q: What about the GI50 (MDA-N) of the same molecule?
A: Its GI50 is 2.79 µM (inactive).

Q: What about the GI50 (SN12C) of the same molecule?
A: The GI50 was 16.1 µM (inactive).

Q: And the GI50 (A549)?
A: The GI50 was 19.6 µM (inactive).

Q: And the GI50 (RXF 631)?
A: Its GI50 is 17.7 µM (inactive).

Q: And the GI50 (LOX IMVI)?
A: Its GI50 is 2.21 µM (inactive).

Q: And the GI50 (M19-MEL)?
A: Its GI50 is 1.97 µM (inactive).

Q: What about the GI50 (786-0) of the same molecule?
A: The GI50 was 12.8 µM (inactive).

Q: And the GI50 (HOP-62)?
A: Its GI50 is 21.7 µM (inactive).

Q: And the GI50 (OVCAR-4)?
A: The GI50 was 14.9 µM (inactive).

Q: And the GI50 (M14)?
A: Its GI50 is 6.44 µM (inactive).

Q: What about the GI50 (A498) of the same molecule?
A: The GI50 was 16.1 µM (inactive).

Q: And the GI50 (RPMI-8226)?
A: The GI50 was 1600 nM (inactive).

Q: What about the GI50 (SF-295) of the same molecule?
A: The GI50 was 10.4 µM (inactive).

Q: What about the GI50 (MOLT-4) of the same molecule?
A: The GI50 was 3950 nM (inactive).

Q: And the GI50 (HT-29)?
A: Its GI50 is 5.87 µM (inactive).

Q: And the GI50 (MDA-MB-231)?
A: The GI50 was 6.07 µM (inactive).

Q: What about the GI50 (SK-OV-3) of the same molecule?
A: Its GI50 is 21.4 µM (inactive).

Q: And the GI50 (LXFL 529)?
A: Its GI50 is 4.5 µM (inactive).

Q: And the GI50 (NCI/ADR-RES)?
A: Its GI50 is 8.77 µM (inactive).

Q: What about the GI50 (Hs-578T) of the same molecule?
A: The GI50 was 8.2 µM (inactive).

Q: And the GI50 (SK-MEL-5)?
A: The GI50 was 13.2 µM (inactive).

Q: What about the GI50 (DMS-114) of the same molecule?
A: The GI50 was 9.68 µM (inactive).

Q: And the GI50 (CAKI-1)?
A: The GI50 was 23.4 µM (inactive).

Q: And the GI50 (OVCAR-5)?
A: The GI50 was 17.3 µM (inactive).

Q: What about the GI50 (SNB-75) of the same molecule?
A: The GI50 was 20.2 µM (inactive).

Q: What about the GI50 (DMS-273) of the same molecule?
A: The GI50 was 8.04 µM (inactive).

Q: What about the GI50 (SNB-19) of the same molecule?
A: The GI50 was 14.6 µM (inactive).

Q: What about the GI50 (CCRF-CEM) of the same molecule?
A: Its GI50 is 4.12 µM (inactive).

Q: And the GI50 (PC-3)?
A: The GI50 was 5.89 µM (inactive).

Q: And the GI50 (KM-20L2)?
A: Its GI50 is 8.79 µM (inactive).

Q: What about the GI50 (SW-620) of the same molecule?
A: Its GI50 is 2600 nM (inactive).

Q: What about the GI50 (HCT-15) of the same molecule?
A: Its GI50 is 8.07 µM.
